Measurements published in paper PMC9977294, “A parasitic fungus employs mutated eIF4A to survive on rocaglate-synthesizing Aglaia plants” (eLife, 2023).
Where “and” joins values, the source holds several entries; their conditions need not be identical. Equal values may be shown once. Read-outs that look alike come from different tables or passages of the source.

Tests used:
[1] = target: T1, O. sinensis eIF4A His154Gly (Ophiocordyceps sinensis, UniProt A0A8H4LTQ8, H154G); test: Fluorescence polarization assay, FAM-labeled [AG]10 RNA and recombinant eIF4A; assay type: binding; conditions: for Kd: [AG]10 10 nM, compound 50 µM, read-out: Kd between eIF4A protein and RNA
T1 sequence (A0A8H4LTQ8 1-397 H154G): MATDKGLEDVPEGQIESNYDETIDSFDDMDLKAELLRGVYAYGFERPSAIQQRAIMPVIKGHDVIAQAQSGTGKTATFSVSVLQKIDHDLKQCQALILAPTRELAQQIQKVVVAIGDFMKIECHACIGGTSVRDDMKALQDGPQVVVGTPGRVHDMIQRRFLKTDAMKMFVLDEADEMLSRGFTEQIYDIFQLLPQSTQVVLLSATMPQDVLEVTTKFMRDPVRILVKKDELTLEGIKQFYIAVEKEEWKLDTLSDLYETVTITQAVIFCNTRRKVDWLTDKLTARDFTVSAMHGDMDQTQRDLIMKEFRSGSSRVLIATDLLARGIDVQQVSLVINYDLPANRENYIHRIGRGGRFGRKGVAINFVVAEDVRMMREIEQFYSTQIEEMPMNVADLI
Experimental: (§1) The fluorescence polarization assay was performed as previously described ([Chen et al., 2021]). […] After incubation at room temperature for 30 min, the mixture was transferred to a black 384-well microplate (Corning), and the fluorescence polarization was measured by an Infinite F-200 PRO (Tecan). Under ADP + Pi conditions, 1 mM ADP (Fujifilm Wako Chemicals) and 1 mM Na2HPO4 were used as substitutes for AMP-PNP. The data were fitted to the Hill equation to calculate Kd values and visualized by Igor Pro v8.01 (WaveMetrics).

[2] = target: T2, O. sinensis eIF4A WT His154 (Ophiocordyceps sinensis, UniProt A0A8H4LTQ8); test: as above; assay type: binding; conditions: for Kd: [AG]10 10 nM, compound 50 µM, read-out: Kd between eIF4A protein and RNA
T2 sequence (A0A8H4LTQ8 1-397): T1 sequence (A0A8H4LTQ8 1-397 H154G)
Experimental: as §1

[3] = [AG]10, ADP + Pi, RocA 50 µM, protein 0.01 μM
[4] = [AG]10, ADP + Pi, RocA 50 µM, protein 0.05 μM
[5] = [AG]10, ADP + Pi, RocA 50 µM, protein 0.075 μM
[6] = [AG]10, ADP + Pi, RocA 50 µM, protein 0.1 μM
[7] = [AG]10, ADP + Pi, RocA 50 µM, protein 0.5 μM
[8] = [AG]10, ADP + Pi, RocA 50 µM, protein 0.75 μM
[9] = [AG]10, ADP + Pi, RocA 50 µM, protein 1 μM
[10] = [AG]10, ADP + Pi, RocA 50 µM, protein 5 μM
[11] = [AG]10, ADP + Pi, RocA 50 µM, protein 7.5 μM
[12] = [AG]10, ADP + Pi, RocA 50 µM, protein 10 μM
[13] = [AG]10, ADP + Pi, RocA 50 µM, protein 25 μM
[14] = [AG]10, ADP + Pi, RocA 50 µM, protein 50 μM
[15] = [AG]10 RNA, AMP-PNP, RocA, protein concentration 0.01 μM
[16] = [AG]10 RNA, AMP-PNP, RocA, protein concentration 0.05 μM
[17] = [AG]10 RNA, AMP-PNP, RocA, protein concentration 0.075 μM
[18] = [AG]10 RNA, AMP-PNP, RocA, protein concentration 0.1 μM
[19] = [AG]10 RNA, AMP-PNP, RocA, protein concentration 0.5 μM
[20] = [AG]10 RNA, AMP-PNP, RocA, protein concentration 0.75 μM
[21] = [AG]10 RNA, AMP-PNP, RocA, protein concentration 1 μM
[22] = [AG]10 RNA, AMP-PNP, RocA, protein concentration 5 μM
[23] = [AG]10 RNA, AMP-PNP, RocA, protein concentration 7.5 μM
[24] = [AG]10 RNA, AMP-PNP, RocA, protein concentration 10 μM
[25] = [AG]10 RNA, AMP-PNP, RocA, protein concentration 25 μM
[26] = [AG]10 RNA, AMP-PNP, RocA, protein concentration 50 μM

## COc1ccc([C@@]23Oc4cc(OC)cc(OC)c4[C@]2(O)[C@H](O)[C@H](C(=O)N(C)C)[C@H]3c2ccccc2)cc1 [RocA, rocaglamide A]
[1]; ADP + Pi (1 mM each)
  Kd: 850 ± 120 nM
[1]; AMP-PNP 1 mM
  Kd: 370 ± 46 nM
[1]; [3]
  fluorescence polarization, Mean: 0.06011
  fluorescence polarization, replicates: -0.02732
[1]; [4]
  fluorescence polarization, Mean: 0.1202
  fluorescence polarization, replicates: 0.1284
[1]; [5]
  fluorescence polarization, Mean: 0.1339
  fluorescence polarization, replicates: 0.1284 and 0.1612 and 0.112
[1]; [6]
  fluorescence polarization, Mean: 0.1639
  fluorescence polarization, replicates: 0.2104 and 0.1284 and 0.153
[1]; [7]
  fluorescence polarization, Mean: 0.6885
  fluorescence polarization, replicates: 0.6858 and 0.5956
[1]; [8]
  fluorescence polarization, Mean: 0.6093
  fluorescence polarization, replicates: 0.5874 and 0.6038
[1]; [9]
  fluorescence polarization, Mean: 0.8743
  fluorescence polarization, replicates: 0.9071 and 0.9481
[1]; [10]
  fluorescence polarization, Mean: 1.648
  fluorescence polarization, replicates: 1.628 and 1.6612 and 1.653
[1]; [11]
  fluorescence polarization, Mean: 1.617
  fluorescence polarization, replicates: 1.6776 and 1.53 and 1.645
[1]; [12]
  fluorescence polarization, Mean: 1.686
  fluorescence polarization, replicates: 1.612 and 1.735 and 1.71
[1]; [13]
  fluorescence polarization, Mean: 1.735
  fluorescence polarization, replicates: 1.76 and 1.751 and 1.694
[1]; [14]
  fluorescence polarization, Mean: 1.7459
  fluorescence polarization, replicates: 1.735 and 1.76 and 1.743
[1]; [15]
  Fluorescence polarization, Replicate 1-3: 0.04372 and 0.1339 and -0.005464
  fluorescence polarization, Mean: 0.05738
[1]; [16]
  Fluorescence polarization, Replicate 1-3: 0.06831 and 0.1421 and -0.03005
  fluorescence polarization, Mean: 0.06011
[1]; [17]
  Fluorescence polarization, Replicate 1-3: 0.06831 and 0.1339 and 0.1503
  fluorescence polarization, Mean: 0.1175
[1]; [18]
  Fluorescence polarization, Replicate 1-3: 0.1667 and 0.0847 and 0.1995
  fluorescence polarization, Mean: 0.1503
[1]; [19]
  Fluorescence polarization, Replicate 1-3: 1.142 and 1.044 and 0.9536
[1]; [20]
  Fluorescence polarization, Replicate 1-3: 0.9454 and 1.044 and 0.9126
  fluorescence polarization, Mean: 0.9672
[1]; [21]
  Fluorescence polarization, Replicate 1-3: 1.175 and 1.167 and 1.109
[1]; [22]
  Fluorescence polarization, Replicate 1-3: 1.5847 and 1.5765 and 1.601
  fluorescence polarization, Mean: 1.587
[1]; [23]
  Fluorescence polarization, Replicate 1-3: 1.511 and 1.56 and 1.601
  fluorescence polarization, Mean: 1.557
[1]; [24]
  Fluorescence polarization, Replicate 1-3: 1.675 and 1.56 and 1.667
  fluorescence polarization, Mean: 1.634
[1]; [25]
  Fluorescence polarization, Replicate 1-3: 1.5847 and 1.699 and 1.626
  fluorescence polarization, Mean: 1.637
[1]; [26]
  Fluorescence polarization, Replicate 1-3: 1.65 and 1.626 and 1.691
  fluorescence polarization, Mean: 1.656
[2]; ADP + Pi (1 mM each)
  Kd: ~110 nM and 110 nM
[2]; AMP-PNP 1 mM
  Kd: 90 ± 14 nM
[2]; [3]
  fluorescence polarization, replicates: 0.1995
[2]; [4]
  fluorescence polarization, Mean: 0.4699
  fluorescence polarization, replicates: 0.5109 and 0.4536
[2]; [5]
  fluorescence polarization, Mean: 0.6066
  fluorescence polarization, replicates: 0.6585
[2]; [6]
  fluorescence polarization, Mean: 0.7049
  fluorescence polarization, replicates: 0.7732 and 0.6667
[2]; [7]
  fluorescence polarization, Mean: 1.713
  fluorescence polarization, replicates: 1.781 and 1.675 and 1.683
[2]; [8]
  fluorescence polarization, Mean: 1.757
  fluorescence polarization, replicates: 1.724 (2×) and 1.8224
[2]; [9]
  fluorescence polarization, Mean: 1.82
  fluorescence polarization, replicates: 1.8224 (2×) and 1.814
[2]; [10]
  fluorescence polarization, Mean: 1.888
  fluorescence polarization, replicates: 1.913 and 1.872 and 1.88
[2]; [11]
  fluorescence polarization, Mean: 1.883
  fluorescence polarization, replicates: 1.855 and 1.904 and 1.888
[2]; [12]
  fluorescence polarization, Mean: 1.893
  fluorescence polarization, replicates: 1.921 and 1.896 and 1.863
[2]; [13]
  fluorescence polarization, Mean: 1.861
  fluorescence polarization, replicates: 1.863 and 1.913 and 1.806
[2]; [14]
  fluorescence polarization, Mean: 1.801
  fluorescence polarization, replicates: 1.814 and 1.798 and 1.79
[2]; [15]
  Fluorescence polarization, Replicate 1-3: 0.1557 and 0
  fluorescence polarization, Mean: 0.09016
[2]; [16]
  Fluorescence polarization, Replicate 1-3: 0.5246 (2×) and 0.418
  fluorescence polarization, Mean: 0.4891
[2]; [17]
  Fluorescence polarization, Replicate 1-3: 0.5328 and 0.6803
  fluorescence polarization, Mean: 0.6175
[2]; [18]
  Fluorescence polarization, Replicate 1-3: 0.8689 and 0.8033 and 0.7049
  fluorescence polarization, Mean: 0.7923
[2]; [19]
  Fluorescence polarization, Replicate 1-3: 1.713 (2×) and 1.631
  fluorescence polarization, Mean: 1.686
[2]; [20]
  Fluorescence polarization, Replicate 1-3: 1.795 and 1.7459 and 1.77
  fluorescence polarization, Mean: 1.77
[2]; [21]
  Fluorescence polarization, Replicate 1-3: 1.861 and 1.836 and 1.779
  fluorescence polarization, Mean: 1.825
[2]; [22]
  Fluorescence polarization, Replicate 1-3: 1.787 and 1.828 and 1.811
  fluorescence polarization, Mean: 1.809
[2]; [23]
  Fluorescence polarization, Replicate 1-3: 1.869 and 1.877 and 1.844
  fluorescence polarization, Mean: 1.863
[2]; [24]
  Fluorescence polarization, Replicate 1-3: 1.836 and 1.7459 and 1.795
  fluorescence polarization, Mean: 1.792
[2]; [25]
  Fluorescence polarization, Replicate 1-3: 1.902 and 1.77 and 1.779
  fluorescence polarization, Mean: 1.817
[2]; [26]
  Fluorescence polarization, Replicate 1-3: 1.852 and 1.787 and 1.77
  fluorescence polarization, Mean: 1.803
